The record followed here is US20250144187A1, “COMBINATION OF HYDROLASES AND ANTI-MICROORGANISM DRUGS AND USES THEREOF” (CENTRE FOR EYE AND VISION RESEARCH LIMITED, priority 2023, published 2025).

SMILES strings stand for the structures.

Test [1] concerns methicillin-resistant Staphylococcus aureus USA 300 (MRSA, ATCC-BAA1556). Nature of the test: Check board broth micro-dilution assay, auranofin with human lysozyme. The test is classed as cell-based. Conditions: auranofin in combination with lysozyme. The protocol: Then, about 5.0×10^5 colony-forming units (CFUs) of methicillin-resistant Staphylococcus aures (MRSA, USA300 strain) in log phase were added into each well for overnight culture. Bacterial growth inhibition was monitored by optical density at 600 nm (OD600) and colony units in serial dilution in LB agar plate. Well without any drug served as growth control, and well without bacteria served as background control. The inhibition ratio was calculated as […]. CFUs were counted by 10-fold serial dilution in phosphate buffered saline (PBS) and 10 μl of dilutions were spotted in LB agar plate. […] Briefly, FICI=MICAB/MICA+MICBA/MICB=FICA+FICB. […] Thus, there would be a series of FICI values. In most of cases, the lowest one among these values was listed to reflect the best achieving degree of combination therapy. In terms of the lowest FICI, FICI≤0.5, 0.5<FICI<1 or FICI≥1, would indicate whether the combination has synergy, part synergy or non-synergy effects, respectively. Besides, to better highlight the inhibition degree of bacterial growth in combination therapy or identify whether combination therapy has synergy effect, results might be shown by heat-maps or line-charts containing different FICI values, although they were performed by using same 2-fold dilution method. All assays were performed in triplicate.

Test [2] concerns MRSA. Nature of the test: Time-killing curves, auranofin/lysozyme. It is filed as cell-based, Staphylococcus aureus. The method, then:
2) Time-killing curves According to standard method [K. R. V. Thappeta et al., (2020) ACS Infect Dis 6: 1228-1237], over-night cultured MRSA was diluted and aliquoted into new sterile tubes at 1:1000 ratio. Then, the bacterial suspension was co-cultured with […] auranofin, 0.5 mg/ml lysozyme or their combination at 37° C. with shaking at 200 rpm. Similar bacterial suspension without any additions served as control group. Then, 20 μl of each culture was extracted at time intervals of […] and 22 hours to determine CFUs by spotting 10 μl of 10-fold dilution on the LB agar plates and incubating at 37° C. for 24 hours prior to enumeration. All assays were performed in triplicate.

A further test concerns MRSA biofilm. Nature of the test: Biofilm crystal violet assay, auranofin/lysozyme. It is filed as cell-based, Staphylococcus aureus. The protocol:
3) Biofilm assays According to described previously method [K. R. V. Thappeta et al., (2020) ACS infect Dis 6: 1228-1237], biofilm inhibition was assessed by using an adherence assay on 96-well tissue culture plates. Briefly, bacterial suspensions (1×10^6 (CFU/ml) were exposed to 0.34 μg/ml auranofin in LB medium in the absence and presence of 0.5 mg/ml lysozyme. LB medium with or without bacteria served as […] control group, respectively. After overnight incubation at 37° C. bacterial suspensions were removed, and the wells were gently washed twice with sterile PBS to remove exclusively non-adherent bacteria. The adherent biofilms were fixed by using 95% methanol at 60° C. for 15 minutes. Then, biofilms were stained with 1% crystal violet (100 μl/well) at 37° C. for 15 minutes, followed by gently washing with PBS to remove redundant crystal violet. Finally, the dye was solubilized with 150 μl of 95% ethanol per well at 37° C. for 30 minutes. The optical density of solution in each well was measured at 590 nm using a micro-plate reader. Herein, strong biofilm, weak biofilm and no biofilm wen defined as “ODsample≥2 ODnegative control”, “ODnegative control<ODsample<2 ODnegative control” and “ODsample≤ODnegative control”, respectively. All assays were performed in triplicate.

Test [3] deals with MRSA. Briefly: Resistance development study (serial passages), auranofin/lysozyme. The settings on record: combination with lysozyme compared with auranofin alone. It is filed as cell-based, Staphylococcus aureus. The protocol: 4) Resistance development study. As described before [Y, Lau et al., (2020) Adv Sci 7:1902227]. MRSA at exponential phase was diluted (1:1000) into fresh LB medium containing different concentrations of auranofin, lysozyme or their combination. After 1 passage (24 hours) at 37° C., MIC of culture was determined by standard two-fold serial dilutions. Next, this culture with higher MIC was further diluted into similar LB medium but with higher concentrations of compounds for next passages. The process was repeated for 18 days. By analyzing initial MICs of auranofin or lysozyme, fold-changes in MI s of these compounds were calculated. Assays were performed in triplicate.

Test [4] has as its system MRSA. Briefly: Mutation frequency and prevention concentration analysis, auranofin/lysozyme. It is filed as cell-based, Staphylococcus aureus. The source says:
5) Mutation frequency and prevention concentration analysis.

Test [5] has as its system MRSA. Briefly: ATP level, auranofin/lysozyme. It is filed as cell-based, Staphylococcus aureus. The settings on record: 0.5 mg/ml lysozyme and 0.34 μg/ml auranofin. The method, then: 8) ATP level. […] Those without any treatment served as control group. Alter 1 hour incubation at 37° C. all bacteria were collected and washed by cold PBS for 3 times. […] Then, 20 μl of each supernatant were added white 96-well plate pre-reactivated by 100 μl of ATP test solution (Beyotime) to perform luminometer measurement.

Another test concerns ARPE-19 cells. Nature of the test: Toxicity analysis of auranofin by CCK-8 kit. The test is classed as cell-based, human. Conditions: uninfected cells. The text has this:
FIG. 10: Toxicity analysis of auranofin on ARPE-19 cells by using CCK-8 kit.
(In general: Tetrazolium assays rely on reduction of a dye to a coloured formazan, in cell work by metabolically active cells.)

For the next test, the system named is MRSA in ARPE-19 cells. Briefly: Cell-based infection model, auranofin/lysozyme. Conditions: ≥0.34 μg/ml auranofin combined with 0.5 mg/ml lysozyme.
Test [6] relates to MRSA. Nature of the test: TMT proteomics analysis and PRM validation, auranofin/lysozyme. The settings on record: auranofin + lysozyme combination vs lysozyme alone, 5 hours.

Turning to `CC(=O)OC[C@H]1O[C@@H]([S-])[C@H](OC(C)=O)[C@@H](OC(C)=O)[C@@H]1OC(C)=O.CCP(CC)CC.[Au+]` [auranofin, Auranofin], in test [1], the “fractional inhibitory concentration index (FICI)” value worked out at 0.266. Besides, the bacterial load with MRSA [2] (0.34 μg/ml auranofin + 0.5 mg/ml lysozyme, reduced from the level of 10^10) was 10^5 CFU/ml. The “inhibition effect on growth of MRSA at exponential phase” value in the test on MRSA [2] (drug alone: 0.34 μg/ml auranofin or 0.5 mg/ml lysozyme) is listed as “few inhibitions effect”. The “biofilm-based absorbance at 590 nm, pre-biofilm stage” value in the test on MRSA biofilm (0.34 μg/ml auranofin + 0.5 mg/ml lysozyme) is listed as “biofilm had been absolutely removed”. Besides, the “biofilm-based absorbance at 590 nm, post-biofilm stage” value in the test on MRSA biofilm (auranofin + lysozyme combination after biofilm had appeared) was “the decrease was not observed after biofilm had appeared”. Besides, in the test on MRSA [3], the “development of auranofin resistance” value was “did suppress the development of auranofin resistance”. Further, the gene mutation frequency in the test on MRSA [4] (0.34 μg/ml auranofin + 2 mg/ml lysozyme) is ≤ 1×10^−9. For the same compound, the gene mutation frequency with MRSA [4] (0.34 μg/ml auranofin without lysozyme) was ≥ 9×10^−6. For the same compound, the ATP level entry in the test on MRSA [5] is recorded as “significantly reduced”. The “IC50 of auranofin on ARPE-19 cells” value with ARPE-19 cells came to 2.21±0.34 μg/ml. The “drop of bacterial load in infected ARPE-19 cells” value in the test on MRSA in ARPE-19 cells is reported as 10^2 fold. The “bacterial load in infected ARPE-19 cells” value with MRSA in ARPE-19 cells (MOI 5) is 10^5 CFU/ml. For the same compound, in the test on MRSA [6], the CopZ over-expression is 21 fold, the “N-acetylmuramoyl-L-alanine amidase domain (Q2G222) overexpression” value is listed as ~1.84 fold and the “protein level of walR (Q7A8E1)” value is on record as ~0.68 fold.
